Assay results reported in the NIST ThermoML archive (doi:10.1016/j.jct.2012.01.022).

Assay: xn = mol fraction of the nth substance listed
Conditions: 101 kPa, Liquid; for speed of sound: Sing-around technique in a fixed-path interferometer; for mass density: Vibrating tube method; for viscosity: Capillary tube (Ostwald / Ubbelohde) method

NCCN [ethane-1,2-diamine] + CCCCCCCCCCO
Conditions | mass density [kg/m3] | speed of sound [m/s] | viscosity [mPa·s]
293.15 K, x1 = 0.0424 | 831.534 | 1402.1 | –
293.15 K, x1 = 0.1063 | 834.058 | 1408.9 | –
293.15 K, x1 = 0.1512 | 835.766 | 1414.8 | –
293.15 K, x1 = 0.1995 | 837.56 | 1420.8 | –
293.15 K, x1 = 0.2511 | 839.445 | 1427.1 | –
293.15 K, x1 = 0.2957 | 841.022 | 1432.6 | –
293.15 K, x1 = 0.3961 | 844.521 | 1445.5 | –
293.15 K, x1 = 0.4929 | 848.18 | 1459.7 | –
293.15 K, x1 = 0.609 | 853.458 | 1481.8 | –
293.15 K, x1 = 0.6962 | 858.67 | 1504.6 | –
293.15 K, x1 = 0.7975 | 866.833 | 1541.1 | –
293.15 K, x1 = 0.855 | 872.943 | 1570.1 | –
293.15 K, x1 = 0.9054 | 879.622 | 1602.3 | –
293.15 K, x1 = 0.9591 | 888.704 | 1648.1 | –
298.15 K, x1 = 0.0424 | 828.092 | 1384.9 | 10.96
298.15 K, x1 = 0.1063 | 830.545 | 1391.6 | 10.6
298.15 K, x1 = 0.1512 | 832.202 | 1397.5 | 10.36
298.15 K, x1 = 0.1995 | 833.938 | 1403.3 | 9.921
298.15 K, x1 = 0.2511 | 835.76 | 1409.5 | 9.382
298.15 K, x1 = 0.2957 | 837.289 | 1414.9 | 8.821
298.15 K, x1 = 0.3961 | 840.693 | 1427.6 | 7.355
298.15 K, x1 = 0.4929 | 844.262 | 1441.5 | 6.047
298.15 K, x1 = 0.609 | 849.415 | 1463.1 | 4.514
298.15 K, x1 = 0.6962 | 854.51 | 1485.4 | 3.644
298.15 K, x1 = 0.7975 | 862.525 | 1521.3 | 2.699
298.15 K, x1 = 0.855 | 868.535 | 1549.7 | 2.198
298.15 K, x1 = 0.9054 | 875.128 | 1581.4 | 1.874
298.15 K, x1 = 0.9591 | 884.107 | 1626.4 | 1.598
303.15 K, x1 = 0.0424 | 824.641 | 1367.8 | 9.008
303.15 K, x1 = 0.1063 | 827.029 | 1374.7 | 8.713
303.15 K, x1 = 0.1512 | 828.635 | 1380.3 | 8.442
303.15 K, x1 = 0.1995 | 830.31 | 1386.1 | 8.104
303.15 K, x1 = 0.2511 | 832.075 | 1392.1 | 7.658
303.15 K, x1 = 0.2957 | 833.56 | 1397.5 | 7.229
303.15 K, x1 = 0.3961 | 836.868 | 1409.8 | 6.168
303.15 K, x1 = 0.4929 | 840.345 | 1423.5 | 5.062
303.15 K, x1 = 0.609 | 845.37 | 1444.5 | 3.892
303.15 K, x1 = 0.6962 | 850.353 | 1466.5 | 3.107
303.15 K, x1 = 0.7975 | 858.212 | 1501.6 | 2.343
303.15 K, x1 = 0.855 | 864.125 | 1529.5 | 1.985
303.15 K, x1 = 0.9054 | 870.631 | 1560.8 | 1.66
303.15 K, x1 = 0.9591 | 879.506 | 1604.9 | 1.403
308.15 K, x1 = 0.0424 | 821.178 | 1350.9 | 7.295
308.15 K, x1 = 0.1063 | 823.508 | 1358 | 7.087
308.15 K, x1 = 0.1512 | 825.064 | 1363.4 | 6.852
308.15 K, x1 = 0.1995 | 826.684 | 1369.1 | 6.563
308.15 K, x1 = 0.2511 | 828.392 | 1375 | 6.202
308.15 K, x1 = 0.2957 | 829.829 | 1380.3 | 5.881
308.15 K, x1 = 0.3961 | 833.045 | 1392.3 | 5.028
308.15 K, x1 = 0.4929 | 836.429 | 1405.6 | 4.23
308.15 K, x1 = 0.609 | 841.323 | 1426.1 | 3.288
308.15 K, x1 = 0.6962 | 846.189 | 1447.5 | 2.661
308.15 K, x1 = 0.7975 | 853.898 | 1481.9 | 2.032
308.15 K, x1 = 0.855 | 859.714 | 1509.4 | 1.708
308.15 K, x1 = 0.9054 | 866.124 | 1540.1 | 1.485
308.15 K, x1 = 0.9591 | 874.895 | 1583.6 | 1.238
313.15 K, x1 = 0.0424 | 817.698 | 1334.2 | –
313.15 K, x1 = 0.1063 | 819.969 | 1341.6 | –
313.15 K, x1 = 0.1512 | 821.476 | 1346.8 | –
313.15 K, x1 = 0.1995 | 823.045 | 1352.3 | –
313.15 K, x1 = 0.2511 | 824.7 | 1358.1 | –
313.15 K, x1 = 0.2957 | 826.089 | 1363.2 | –
313.15 K, x1 = 0.3961 | 829.21 | 1375 | –
313.15 K, x1 = 0.4929 | 832.502 | 1387.9 | –
313.15 K, x1 = 0.609 | 837.271 | 1407.9 | –
313.15 K, x1 = 0.6962 | 842.017 | 1428.6 | –
313.15 K, x1 = 0.7975 | 849.57 | 1462.5 | –
313.15 K, x1 = 0.855 | 855.287 | 1489.4 | –
313.15 K, x1 = 0.9054 | 861.605 | 1519.8 | –
313.15 K, x1 = 0.9591 | 870.264 | 1562.4 | –

NCCN [ethane-1,2-diamine] + CCCCCCCCO
Conditions | mass density [kg/m3] | speed of sound [m/s] | viscosity [mPa·s]
293.15 K, x1 = 0.0595 | 828.135 | 1373.2 | –
293.15 K, x1 = 0.1021 | 830.247 | 1379.6 | –
293.15 K, x1 = 0.143 | 832.248 | 1386.6 | –
293.15 K, x1 = 0.2012 | 835.047 | 1396.5 | –
293.15 K, x1 = 0.2633 | 838.043 | 1407.3 | –
293.15 K, x1 = 0.3122 | 839.349 | 1412.6 | –
293.15 K, x1 = 0.4113 | 844.656 | 1433.8 | –
293.15 K, x1 = 0.4919 | 848.413 | 1450.2 | –
293.15 K, x1 = 0.5973 | 854.134 | 1475.6 | –
293.15 K, x1 = 0.7019 | 861.054 | 1508.3 | –
293.15 K, x1 = 0.7938 | 868.882 | 1546.3 | –
293.15 K, x1 = 0.8436 | 874.136 | 1573.2 | –
293.15 K, x1 = 0.8941 | 881.269 | 1609.4 | –
293.15 K, x1 = 0.9546 | 889.526 | 1651.7 | –
298.15 K, x1 = 0.0595 | 824.621 | 1356.2 | –
298.15 K, x1 = 0.0596 | – | – | 6.934
298.15 K, x1 = 0.1021 | 826.683 | 1362.6 | 6.834
298.15 K, x1 = 0.143 | 828.632 | 1369.4 | 6.713
298.15 K, x1 = 0.2012 | 831.36 | 1379.3 | 6.457
298.15 K, x1 = 0.2633 | 834.276 | 1389.9 | 6.099
298.15 K, x1 = 0.3122 | 835.547 | 1397.8 | 5.734
298.15 K, x1 = 0.4113 | 840.743 | 1415.9 | 4.957
298.15 K, x1 = 0.4919 | 844.426 | 1432 | 4.251
298.15 K, x1 = 0.5973 | 850.038 | 1457.1 | 3.406
298.15 K, x1 = 0.7019 | 856.833 | 1489 | 2.707
298.15 K, x1 = 0.7938 | 864.539 | 1526.5 | 2.214
298.15 K, x1 = 0.8436 | 869.72 | 1551.8 | 1.985
298.15 K, x1 = 0.8941 | 876.764 | 1582.4 | 1.751
298.15 K, x1 = 0.9546 | 884.925 | 1627.9 | 1.54
303.15 K, x1 = 0.0595 | – | 1338.9 | –
303.15 K, x1 = 0.0596 | – | – | 5.792
303.15 K, x1 = 0.1021 | – | 1345.7 | 5.694
303.15 K, x1 = 0.143 | – | 1352.5 | 5.569
303.15 K, x1 = 0.2012 | – | 1362.3 | 5.331
303.15 K, x1 = 0.2633 | – | 1372.1 | 5.041
303.15 K, x1 = 0.3122 | – | 1379.9 | 4.75
303.15 K, x1 = 0.4113 | – | 1398.3 | 4.144
303.15 K, x1 = 0.4919 | – | 1414 | 3.595
303.15 K, x1 = 0.5973 | – | 1438.7 | 2.917
303.15 K, x1 = 0.7019 | – | 1469.9 | 2.395
303.15 K, x1 = 0.7938 | – | 1506.3 | 1.956
303.15 K, x1 = 0.8436 | – | 1530.5 | 1.748
303.15 K, x1 = 0.8941 | – | 1559.9 | 1.532
303.15 K, x1 = 0.9546 | – | 1604.9 | 1.34
308.15 K, x1 = 0.0595 | 817.544 | 1322.8 | –
308.15 K, x1 = 0.0596 | – | – | 4.848
308.15 K, x1 = 0.1021 | 819.514 | 1329 | 4.757
308.15 K, x1 = 0.143 | 821.37 | 1335.8 | 4.662
308.15 K, x1 = 0.2012 | 823.957 | 1345.5 | 4.461
308.15 K, x1 = 0.2633 | 826.723 | 1355.7 | 4.211
308.15 K, x1 = 0.3122 | 827.934 | 1360.7 | 3.975
308.15 K, x1 = 0.4113 | 832.902 | 1380.8 | 3.497
308.15 K, x1 = 0.4919 | 836.434 | 1396.4 | 3.054
308.15 K, x1 = 0.5973 | 841.825 | 1420.5 | 2.515
308.15 K, x1 = 0.7019 | 848.372 | 1451.2 | 2.031
308.15 K, x1 = 0.7938 | 855.829 | 1487.3 | 1.669
308.15 K, x1 = 0.8436 | 860.863 | 1512.4 | 1.5
308.15 K, x1 = 0.8941 | 867.723 | 1546.7 | 1.342
308.15 K, x1 = 0.9546 | 875.69 | 1586.8 | 1.2
313.15 K, x1 = 0.0595 | 813.972 | 1306.6 | –
313.15 K, x1 = 0.1021 | 815.903 | 1313.3 | –
313.15 K, x1 = 0.143 | 817.713 | 1319.7 | –
313.15 K, x1 = 0.2012 | 820.239 | 1329 | –
313.15 K, x1 = 0.2633 | 822.931 | 1339.1 | –
313.15 K, x1 = 0.3122 | 824.111 | 1343.9 | –
313.15 K, x1 = 0.4113 | 828.963 | 1363.5 | –
313.15 K, x1 = 0.4919 | 832.42 | 1378.9 | –
313.15 K, x1 = 0.5973 | 837.701 | 1402.6 | –
313.15 K, x1 = 0.7019 | 844.123 | 1432.8 | –
313.15 K, x1 = 0.7938 | 851.455 | 1468.2 | –
313.15 K, x1 = 0.8436 | 856.411 | 1492.4 | –
313.15 K, x1 = 0.8941 | 863.18 | 1526.1 | –
313.15 K, x1 = 0.9546 | 871.049 | 1565.6 | –
